Test results from patent US12280090B2, “Antimicrobial peptides” (priority 2018, dated 2025).
≈ marks a conversion by molar mass, not a printed value. Where two headings read alike, the source gives them in different places. Ends that are not written are not given here. Peptide text beside a SMILES is read from it.

Columns and labels:
Assay type in all cases: cell-based
[1] = test system: Salmonella Enteritidis
From the text: (§1) Putative antimicrobial peptides were synthesized by GeneScript. A-list antimicrobial peptides re-synthesized by GeneScript. P2_CCH, P5_CCH, and P5_CCH_A19K were each synthesized under two conditions: standard synthesis using TFA, and the other with TFA-removal using acetate as a counter-ion. A MIC method, adapted for use with cationic antimicrobial peptides, was used to evaluate MIC antimicrobial activity (Hancock 1999).
(§2) The following data are presented to show the activity (MIC/MBC in μg/mL) of certain antimicrobial peptides described herein relative to a modified/synthetic version having a specified substitution. While data presented in tables above may be presented again, or may be represented in data provided in the tables below, such duplication is believed to assist the reader in readily noting comparisons. Different Run Numbers noted in the following tables denotes experiments conducted on different days, with each run reflecting multiple n values.

[2] = test system: Staphylococcus aureus—ATCC 29213 “wild type”
Method: (§3) Independent experiments were conducted with different strains of Staphylococcus aureus—ATCC 29213 “wild type”; and Staphylococcus aureus—Methicillin resistant Staphylococcus aureus.
(§4) The ATCC (American Type Culture Collection) strains received from Cedarlane. Multi drug resistant (MDR) strains, as clinical isolates, were received from the laboratory of Dr. Linda Hoang.
as §1, §2

[3] = test system: Escherichia coli—Carbapenemase-producing organism; Klebsiella pneumoniae carbapenemase
Method: (§5) Independent experiments were conducted with four strains of E. coli, including ATCC E. coli (Escherichia coli—ATCC 25922 “wild type”); ESBL E. coli (Escherichia coli—Extended spectrum beta-lactamase); CPO E. coli (KPC) (Escherichia coli—Carbapenemase-producing organism; Klebsiella pneumoniae carbapenemase); and CPO E. coli (NDM) (Escherichia coli—Carbapenemase-producing organism; New-Dehli Metallobetalactamase).
as §4, §1, §2

[4] = test system: Escherichia coli—ATCC 25922 “wild type”
Method: as §5, §4, §1, §2

[5] = test system: Escherichia coli—Extended spectrum beta-lactamase
Method: as §5, §4, §1, §2

[6] = test system: Escherichia coli—Carbapenemase-producing organism; New-Dehli Metallobetalactamase
Method: as §5, §4, §1, §2

[7] = test system: Salmonella Heidelberg (MDR)
From the text: as §4, §1, §2

[8] = test system: Methicillin resistant Staphylococcus aureus; conditions: Methicillin resistant
Method: as §3, §4, §1, §2

[9] = test system: Escherichia coli: ATCC 9723H; conditions: ATCC 9723
Outline: (§6)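 MIC and MBC were run by broth microdilution adapted from Hancock cationic-AMP and CLSI methods, in Mueller Hinton broth (+5% lysed horse blood for S. pyogenes) at about 5×10^5 CFU/mL. Peptides came from two-fold 10× stocks (2560–5 μg/mL) and were incubated 16-24 h at 37 °C. For MBC, the MIC well and two more-concentrated wells were plated on MHA for 24 h at 37 °C.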

[10] = test system: Mycobacterium smegmatis (MC^2155); conditions: Mycobacterium (MC^2155)
Outline: as §6

[11] = test system: Staphylococcus aureus: ATCC 6538P; conditions: ATCC 6538
Outline: as §6

[12] = test system: Streptococcus pyogenes: unknown strain, hospital isolate; conditions: unknown strain, hospital isolate
Outline: as §6

[13] = test system: Pseudomonas aeruginosa: ATCC 10148; conditions: ATCC 10148
Outline: as §6

[14] = Salmonella Heidelberg (MDR), Run No. 2
[15] = Salmonella Heidelberg (MDR), Run No. 3

| Minimum Inhibitory Concentration (MIC) [3] [µg/mL] | Minimum Inhibitory Concentration (MIC) [4] [µg/mL] | MIC [5] [µg/mL] | Minimum Inhibitory Concentration (MIC) [5] [µg/mL] | Minimum Inhibitory Concentration (MIC) [6] [µg/mL] | MIC [1] [µg/mL] | MIC [7] [µg/mL] | MIC [4] [µg/mL] | MIC [10] [µg/mL] | MIC [11] [µg/mL] | MIC [12] [µg/mL] | MIC [13] [µg/mL] | MIC ([2]; ATCC 29213) [µg/mL] | Compound | MBC [5] [µg/mL] | MBC [11] [µg/mL] | MBC [12] [µg/mL] | MBC [13] [µg/mL] | also measured |
| --- | --- | --- | --- | --- | --- | --- | --- | --- | --- | --- | --- | --- | --- | --- | --- | --- | --- | --- |
| 4 | 4 | 4 (≈ 1.21 µM) | 4 | 4 to 8 |  |  | 4 (≈ 1.21 µM) |  |  |  |  |  | CC[C@H](C)[C@H](NC(=O)[C@H](CCCCN)NC(=O)[C@H](CCCCN)NC(=O)CNC(=O)[C@@H](NC(=O)[C@@H](NC(=O)[C@H](CCCCN)NC(=O)[C@@H](NC(=O)[C@@H](NC(=O)[C@H](CCC(=O)O)NC(=O)[C@H](Cc1c[nH]c2ccccc12)NC(=O)[C@H](CC(C)C)NC(=O)CN)[C@@H](C)O)[C@@H](C)CC)[C@@H](C)O)[C@@H](C)O)C(=O)N[C@@H](C)C(=O)N[C@@H](CC(C)C)C(=O)N[C@@H](CC(N)=O)C(=O)N[C@@H](CC(C)C)C(=O)N[C@@H](CC(C)C)C(=O)N[C@@H](CC(=O)O)C(=O)N[C@@H](CCCCN)C(=O)N[C@H](C(=O)N[C@@H](CCCCN)C(=O)N[C@@H](CS)C(=O)N[C@@H](CCCCN)C(=O)N[C@H](C(=O)N[C@@H](C)C(=O)NCC(=O)NCC(=O)N[C@@H](CS)C(=O)N1CCC[C@H]1C(=O)N1CCC[C@H]1C(=O)O)[C@@H](C)CC)[C@@H](C)CC [Peptide P6_CCH_S12K] (H-GLWETIKTTGKKIALNLLDKIKCKIAGGCPP-OH; N-terminus and C-terminus assumed) | 4 (≈ 1.21 µM) |  |  |  | MBC [4]: 4 µg/mL (≈ 1.21 µM); Minimum Inhibitory Concentration (MIC) [1]: 16 to 32 µg/mL; Minimum Inhibitory Concentration (MIC) [8]: 64 to 128 µg/mL; Minimum Inhibitory Concentration (MIC) ([2]; ATCC 29213): 64 to 128 µg/mL; Minimum Inhibitory Concentration (MIC) [7]: 16 to 32 µg/mL |
|  |  |  |  |  | 32 | 128 |  | >256 | >256 | >256 | >256 | 64 | ALVAKIQKFPVFNTLKLCKLELEII [Peptide P11_CCH] |  | >256 | >256 | >256 | MBC [9]: >256 µg/mL; MIC [9]: >256 µg/mL; MBC [10]: >256 µg/mL |
|  |  |  |  |  | 16 | 32 |  | >256 | >256 | >256 | >256 | 128 | IQRLPVINMLKLWKLELEII [Peptide P13_CCH] |  | >256 | >256 | >256 | MIC [6]: 256 µg/mL; MBC [9]: >256 µg/mL; MIC [9]: >256 µg/mL; MBC [10]: >256 µg/mL; MIC [7, 14]: ~32? μg/mL; MIC [7, 15]: ~32? μg/mL |

The remaining lines, values behind:

| Compound | Minimum Inhibitory Concentration (MIC) [3] [µg/mL] | Minimum Inhibitory Concentration (MIC) [4] [µg/mL] | MIC [5] [µg/mL] | Minimum Inhibitory Concentration (MIC) [5] [µg/mL] | Minimum Inhibitory Concentration (MIC) [6] [µg/mL] | MIC [1] [µg/mL] | MIC [7] [µg/mL] | MIC [4] [µg/mL] | MIC [10] [µg/mL] | MIC [11] [µg/mL] | MIC [12] [µg/mL] | MIC [13] [µg/mL] | MIC ([2]; ATCC 29213) [µg/mL] | MBC [5] [µg/mL] | MBC [11] [µg/mL] | MBC [12] [µg/mL] | MBC [13] [µg/mL] | also measured |
| --- | --- | --- | --- | --- | --- | --- | --- | --- | --- | --- | --- | --- | --- | --- | --- | --- | --- | --- |
| CC[C@H](C)[C@H](NC(=O)[C@H](CCCCN)NC(=O)[C@H](CCC(=O)O)NC(=O)[C@H](CCCCN)NC(=O)[C@H](CO)NC(=O)[C@H](CCCCN)NC(=O)[C@H](CCCNC(=N)N)NC(=O)[C@H](Cc1ccccc1)NC(=O)[C@H](Cc1ccccc1)NC(=O)[C@H](CC(=O)O)NC(=O)CNC(=O)[C@H](CC(C)C)NC(=O)[C@@H](N)CC(C)C)C(=O)NCC(=O)N[C@@H](CCCCN)C(=O)N[C@@H](CCC(=O)O)C(=O)N[C@@H](Cc1ccccc1)C(=O)N[C@@H](CCCCN)C(=O)N[C@@H](CCCNC(=N)N)C(=O)N[C@H](C(=O)N[C@H](C(=O)N[C@@H](CCC(N)=O)C(=O)N[C@@H](CCCNC(=N)N)C(=O)N[C@H](C(=O)N[C@@H](CCCCN)C(=O)N[C@@H](CC(=O)O)C(=O)N[C@@H](Cc1ccccc1)C(=O)N[C@@H](CC(C)C)C(=O)N[C@@H](CCCNC(=N)N)C(=O)N[C@@H](CC(N)=O)C(=O)N[C@@H](CC(C)C)C(=O)N[C@H](C(=O)N1CCC[C@H]1C(=O)N[C@@H](CCCNC(=N)N)C(=O)N[C@H](C(=O)N[C@@H](CCC(=O)O)C(=O)N[C@@H](CO)C(=O)O)[C@@H](C)O)C(C)C)[C@@H](C)CC)C(C)C)[C@@H](C)CC [LL-37, reference compound] |  |  |  |  |  |  |  |  |  |  |  |  |  |  |  |  |  | Minimum Inhibitory Concentration (MIC) ([1]; S. enterica spp. Enteritidis, Gram negative): 64+ ug/mL; Minimum Inhibitory Concentration (MIC) ([2]; S. aureus ATCC 29213, Gram positive): 128+ ug/mL |
| CC[C@H](C)[C@H](NC(=O)[C@H](CCCCN)NC(=O)[C@@H](NC(=O)[C@H](C)NC(=O)[C@H](Cc1ccccc1)NC(=O)[C@H](CC(=O)O)NC(=O)[C@H](CCCCN)NC(=O)CNC(=O)[C@@H](NC(=O)[C@@H](NC(=O)[C@H](CCCCN)NC(=O)[C@@H](NC(=O)[C@@H](NC(=O)[C@H](CC(=O)O)NC(=O)[C@H](CC(C)C)NC(=O)[C@H](CC(C)C)NC(=O)CN)[C@@H](C)CC)[C@@H](C)CC)[C@@H](C)O)[C@@H](C)O)C(C)C)C(=O)N[C@@H](CC(C)C)C(=O)N[C@@H](CC(=O)O)C(=O)N[C@@H](CC(N)=O)C(=O)N[C@@H](CC(C)C)C(=O)N[C@@H](CCCCN)C(=O)N[C@@H](CS)C(=O)N[C@@H](CCCCN)C(=O)N[C@@H](CC(C)C)C(=O)N[C@@H](C)C(=O)NCC(=O)NCC(=O)N[C@@H](CS)C(=O)N1CCC[C@H]1C(=O)N[C@@H](CCCCN)C(=O)O [Peptide P4_CCH_P31K] (H-GLLDIIKTTGKDFAVKILDNLKCKLAGGCPK-OH; N-terminus and C-terminus assumed) | 16 to 32 | 16 to 32 | 32 (≈ 9.77 µM) | 32 | 32 to 64 | 256 (≈ 78.2 µM) | 128 (≈ 39.1 µM) |  |  |  |  |  |  | 32 (≈ 9.77 µM) |  |  |  | MBC [1]: 256 µg/mL (≈ 78.2 µM); Minimum Inhibitory Concentration (MIC) ([7]; S. enterica spp. Heidelberg, Gram negative): 128+ ug/mL |
| ALVAKIQKFPVFNTLKLCKLKLRII [P11_CCH_E21K_E23R] |  |  |  |  |  | 64 | 128 |  |  |  |  |  | 128 |  |  |  |  | MBC [4]: 32 µg/mL; MBC [6]: 128 µg/mL |
| ATAWMIPPRGMQPIIPIRIRPLCGKQ [P7_CCH_P9R_R5M] |  |  | 128 |  |  |  |  | 256 |  |  |  |  | 128 | 128 |  |  |  | MBC [3]: 256 µg/mL; MIC [3]: 256 µg/mL; MIC [6]: 256 µg/mL |
| FFPRVLPLANKFLPTIYCALPKSVGN [Peptide P2_CCH] | 16 to 32 | 16 |  | 16 | 16 | 64 | 128 |  | 16 | >256 | >256 | >256 |  |  | >256 | >256 | >256 | MBC [1]: 64 µg/mL; Minimum Inhibitory Concentration (MIC) [1]: 64 µg/mL; MBC [7]: 128 µg/mL; Minimum Inhibitory Concentration (MIC) [7]: 128 µg/mL |
| IQRLPVIKMLKLWKLELKII [P13_CCH_N8K_E18K] |  |  |  |  |  | 16 | 32 | 32 |  |  |  |  | 256 |  |  |  |  | MIC [3]: 64 µg/mL; MIC ([6]; CPO E. coli (NDM), Run No. 4): ~64? μg/mL; MIC ([6]; CPO E. coli (NDM), Run No. 5): ~64? μg/mL; MIC [7, 14]: ~16? μg/mL; MIC [7, 15]: ~16? μg/mL |
